These results are taken from patent US20220298135A1, “5-HETEROARYL-PYRIDIN-2-AMINE COMPOUNDS AS NEUROPEPTIDE FF RECEPTOR ANTAGONISTS” (Domain Therapeutics, priority 2019, published 2022).

The target of data set [1] is T1, human NPFFR1 (hNPFFR1) receptor (Homo sapiens, UniProt Q9GZQ6).
T1 construct: expressed in transfected cells; host or cells: HEK-293 T cells, transient co-transfection with polyethylenimine
The data set can be described thus: Human NPFFR1 evaluation using BRET biosensors (antagonist IC50). Format: cell-based. The conditions noted are these: hNPFFR1 transiently over-expressed in HEK-293 T cells; BRET signal; stimulation by EC80 RFRP-3. The gist of the method: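 HEK-293T cells co-transfected with receptor, GαoB and Gi-effector BRET biosensor pair, assayed 48 h later. Compound 10 min, then EC80 RFRP-3 with 10 min luminescence read; IC50 from 20-concentration variable-slope fit, duplicate, two independent experiments.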

Data set [2] concerns morphine-induced hyperalgesia. The experiment in a line: Morphine-induced hyperalgesia model in the mouse (tail immersion test). Format: in vivo. Conditions: 10 mg/kg s.c.; morphine 10 mg/kg s.c. daily during 8 days; male C57/B16N mice; tail immersion test 47° C. How it is done: This method, which detects opioid-induced hyperalgesia, follows those well-known by one skilled in the art and described in the literature (Elhabazi K et al., J Vis Exp. 2014; (89):e51264). The procedure applied to the compounds of the invention is as follows:
Nociceptive thresholds are assessed using the tail immersion test (TIT). After TIT, mice are treated daily during 8 consecutive days with morphine (10 mg/kg, sub-cutaneous s.c.) +/− tested compounds (10 mg/kg, s.c.) 20 min before morphine injection for example 31 and 32 and twice a day for examples 56 and 143 (20 min before morphine injection, and in the afternoon).
Mice used were male C57/B16N 8 weeks old at the beginning of the experiment. During TIT the tail of the animal is immersed two-thirds in a water bath at 47° C. and the withdrawal latency is recorded in seconds. The cutoff is 25 seconds, to avoid tissue damage. After TIT mice received an injection depending on their group then are replaced to their home cages.
FIGS. 1A and 1B show the mean time of tail withdrawal latency in each group of animals. The anti-hyperalgesia effect of the tested compounds was compared to vehicle-treated group using ANOVA test followed by the Bonferroni's test.

Data set [3] deals with hyperalgesia induced by the repeated administration of opiate analgesics. Conditions: administered in vivo in the rat; cited from earlier work.

T1 sequence (Q9GZQ6 whole entry): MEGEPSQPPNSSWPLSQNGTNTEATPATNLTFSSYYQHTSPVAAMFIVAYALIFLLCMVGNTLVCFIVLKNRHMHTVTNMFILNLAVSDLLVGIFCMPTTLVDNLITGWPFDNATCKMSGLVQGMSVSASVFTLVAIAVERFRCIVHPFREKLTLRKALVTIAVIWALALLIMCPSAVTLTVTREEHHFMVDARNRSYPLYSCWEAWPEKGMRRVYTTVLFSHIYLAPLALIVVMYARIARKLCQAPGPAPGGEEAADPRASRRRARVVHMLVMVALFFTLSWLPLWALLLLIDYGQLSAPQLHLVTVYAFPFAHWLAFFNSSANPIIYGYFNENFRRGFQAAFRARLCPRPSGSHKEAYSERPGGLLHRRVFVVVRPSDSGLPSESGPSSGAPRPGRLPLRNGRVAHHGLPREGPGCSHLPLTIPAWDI

As to `Cl.Nc1ccc(-c2cccc3ccc(=O)[nH]c23)c(N)n1` [Example 56, 8-(2,6-diaminopyridin-3-yl)quinolin-2(1H)-one], the melting point was more than 250 °C. The IC50 in data set [1] is less than 100 nM. The “blockade of morphine-induced hyperalgesia (tail withdrawal latency)” value in data set [2] is on record as “significant blockade of morphine-induced hyperalgesia”.
Turning to `CCc1nc(N)ccc1-c1c(F)ccc2cc(F)cnc12.Cl` [Example 143, 5-(3,7-difluoroquinolin-8-yl)-6-ethylpyridin-2-amine], the melting point fell in the range of 245 to 250 °C. Moreover, the IC50 in data set [1] was less than 100 nM. Moreover, the “blockade of morphine-induced hyperalgesia (tail withdrawal latency)” value in data set [2] is given as “significant blockade of morphine-induced hyperalgesia”.
As to “Na-adamantan-1-yl-L-Arg-L-Phe-NH2 acetate [RF9]”, in data set [3], the antihyperalgesic activity entry is reported as “antihyperalgesic activity”.

As usually defined, the IC50 is the midpoint of a concentration-inhibition curve. As usually defined, the melting point is the temperature, or range, at which the solid turns liquid.
